Values quoted from earlier work in patent US11077099B2, “Oral tablet formulation of lenalidomide” (SAMYANG HOLDINGS CORPORATION, priority 2016, dated 2021).

Test system: multiple myeloma
Conditions: combination of lenalidomide and dexamethasone; patients with relapses or refractory disease

Nc1cccc2c1CN(C1CCC(=O)NC1=O)C2=O (centres unmarked) [lenalidomide]
disease-free survival time: 13.4 months
overall survival: 38 months
